Measurements taken from US11945813B2, “5-substituted 4-amino-1H-benzo[c][1,2,6]thiadiazine 2,2-dioxides and formulations and uses thereof” (Firmenich Incorporated, priority 2018, dated 2024).

Target: T1, T1R2/T1R3 taste receptor (Homo sapiens, UniProt Q8TE23)
T1 sequence (Q8TE23 20-839): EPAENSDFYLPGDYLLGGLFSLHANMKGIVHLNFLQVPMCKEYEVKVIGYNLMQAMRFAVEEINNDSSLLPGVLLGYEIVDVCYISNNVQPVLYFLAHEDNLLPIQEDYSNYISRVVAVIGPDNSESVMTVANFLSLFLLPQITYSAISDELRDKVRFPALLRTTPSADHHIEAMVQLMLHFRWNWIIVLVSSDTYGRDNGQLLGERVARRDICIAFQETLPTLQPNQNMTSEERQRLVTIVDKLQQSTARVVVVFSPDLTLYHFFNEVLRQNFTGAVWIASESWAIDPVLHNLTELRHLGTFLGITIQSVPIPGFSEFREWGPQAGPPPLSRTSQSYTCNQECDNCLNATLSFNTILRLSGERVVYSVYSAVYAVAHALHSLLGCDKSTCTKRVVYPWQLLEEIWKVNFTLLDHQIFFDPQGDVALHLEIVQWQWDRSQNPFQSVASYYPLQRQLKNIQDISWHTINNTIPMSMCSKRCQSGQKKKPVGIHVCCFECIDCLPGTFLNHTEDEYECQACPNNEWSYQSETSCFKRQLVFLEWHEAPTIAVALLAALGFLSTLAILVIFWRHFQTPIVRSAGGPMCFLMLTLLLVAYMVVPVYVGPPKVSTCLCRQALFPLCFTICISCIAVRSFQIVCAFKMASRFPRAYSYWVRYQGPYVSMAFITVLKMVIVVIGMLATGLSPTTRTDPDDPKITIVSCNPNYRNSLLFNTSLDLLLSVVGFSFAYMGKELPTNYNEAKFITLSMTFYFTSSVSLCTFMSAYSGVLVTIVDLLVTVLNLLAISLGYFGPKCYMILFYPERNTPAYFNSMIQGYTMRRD
T1 sequence (Q7RTX0 21-852 partner): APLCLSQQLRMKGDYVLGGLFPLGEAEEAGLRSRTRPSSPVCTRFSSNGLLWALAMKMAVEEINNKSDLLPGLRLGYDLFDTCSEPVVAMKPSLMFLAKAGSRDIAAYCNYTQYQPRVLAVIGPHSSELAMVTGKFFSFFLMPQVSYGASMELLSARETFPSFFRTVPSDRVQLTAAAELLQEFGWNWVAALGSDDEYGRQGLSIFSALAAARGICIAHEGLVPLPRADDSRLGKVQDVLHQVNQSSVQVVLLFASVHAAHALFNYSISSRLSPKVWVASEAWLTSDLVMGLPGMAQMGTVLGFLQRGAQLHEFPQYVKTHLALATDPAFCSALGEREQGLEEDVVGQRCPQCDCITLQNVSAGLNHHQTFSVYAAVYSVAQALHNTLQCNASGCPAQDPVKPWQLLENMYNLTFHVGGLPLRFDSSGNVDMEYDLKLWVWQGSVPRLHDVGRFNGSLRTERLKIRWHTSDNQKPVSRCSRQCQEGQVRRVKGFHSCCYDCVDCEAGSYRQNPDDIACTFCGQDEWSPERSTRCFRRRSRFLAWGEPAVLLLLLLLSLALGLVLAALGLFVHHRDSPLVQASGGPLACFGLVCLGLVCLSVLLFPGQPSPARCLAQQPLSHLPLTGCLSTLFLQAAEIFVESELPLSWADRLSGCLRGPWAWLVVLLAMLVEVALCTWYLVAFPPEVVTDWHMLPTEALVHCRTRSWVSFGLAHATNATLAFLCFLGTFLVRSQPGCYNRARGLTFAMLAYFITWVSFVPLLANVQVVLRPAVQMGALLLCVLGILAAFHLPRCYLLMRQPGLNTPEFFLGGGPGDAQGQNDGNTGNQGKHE
Assay: Receptor-based assay: sweetener EC50 alone and with test compound (enhancement ratio)
Type: cell-based
Details: for Fructose Enhancement EC50 Ratio: sweetener fructose; for Sucralose Enhancement EC50 Ratio: sweetener sucralose; for Sucrose Enhancement EC50 Ratio: sweetener sucrose
Experimental: Potencies (EC50 values) for the sweeteners sucrose, sucralose, and fructose were measured against the T1R2/T1R3 taste receptor. EC50 was determined using the sweetener alone and in the presence of 3 μM, 10 μM, or 50 μM of test compound. EC50 ratios were calculated by the ratio of potency with and without the test compound. An “A” value indicates an enhancement ratio of greater than 20. A “B” value indicates an enhancement ratio from 10 to 20. A “C” value indicates an enhancement ratio greater than 1 and less than 10.

Compound	Fructose Enhancement EC50 Ratio (10 μM test compound)	Fructose Enhancement EC50 Ratio (50 μM test compound)	Sucralose Enhancement EC50 Ratio (10 μM test compound)	Sucralose Enhancement EC50 Ratio (50 μM test compound)	Sucrose Enhancement EC50 Ratio (3 μM test compound)	Sucrose Enhancement EC50 Ratio (10 μM test compound)	Sucrose Enhancement EC50 Ratio (50 μM test compound)
CCCNc1nccc(NC(C)(C)COc2cccc3c2C(N)=NS(=O)(=O)N3)n1 [Compound 208]	C (A “C” value indicates an enhancement ratio greater than 1 and less than 10)	C (A “C” value indicates an enhancement ratio greater than 1 and less than 10)	A (An “A” value indicates an enhancement ratio of greater than 20)	A (An “A” value indicates an enhancement ratio of greater than 20)	C (A “C” value indicates an enhancement ratio greater than 1 and less than 10)	C (A “C” value indicates an enhancement ratio greater than 1 and less than 10)	C (A “C” value indicates an enhancement ratio greater than 1 and less than 10)
NC1=NS(=O)(=O)Nc2cccc(OC[C@H]3CCCN(c4cc(C(=O)NCCO)ccn4)C3)c21 [Compound 603]	C (A “C” value indicates an enhancement ratio greater than 1 and less than 10)	C (A “C” value indicates an enhancement ratio greater than 1 and less than 10)	A (An “A” value indicates an enhancement ratio of greater than 20)	–	C (A “C” value indicates an enhancement ratio greater than 1 and less than 10)	B (A “B” value indicates an enhancement ratio from 10 to 20)	C (A “C” value indicates an enhancement ratio greater than 1 and less than 10)
CNC(=O)c1ccc(N2CCC[C@H](COc3cccc4c3C(N)=NS(=O)(=O)N4)C2)nc1 [Compound 500]	–	–	A (An “A” value indicates an enhancement ratio of greater than 20)	A (An “A” value indicates an enhancement ratio of greater than 20)	C (A “C” value indicates an enhancement ratio greater than 1 and less than 10)	C (A “C” value indicates an enhancement ratio greater than 1 and less than 10)	C (A “C” value indicates an enhancement ratio greater than 1 and less than 10)
NC1=NS(=O)(=O)Nc2cccc(OC[C@H]3CCCN(c4ccc(C(=O)N5CCOCC5)cn4)C3)c21 [Compound 514]	C (A “C” value indicates an enhancement ratio greater than 1 and less than 10)	C (A “C” value indicates an enhancement ratio greater than 1 and less than 10)	A (An “A” value indicates an enhancement ratio of greater than 20)	B (A “B” value indicates an enhancement ratio from 10 to 20)	C (A “C” value indicates an enhancement ratio greater than 1 and less than 10)	C (A “C” value indicates an enhancement ratio greater than 1 and less than 10)	C (A “C” value indicates an enhancement ratio greater than 1 and less than 10)
CN(C)CCNC(=O)c1ccnc(N2CCC[C@H](COc3cccc4c3C(N)=NS(=O)(=O)N4)C2)c1 [Compound 605]	C (A “C” value indicates an enhancement ratio greater than 1 and less than 10)	C (A “C” value indicates an enhancement ratio greater than 1 and less than 10)	A (An “A” value indicates an enhancement ratio of greater than 20)	A (An “A” value indicates an enhancement ratio of greater than 20)	C (A “C” value indicates an enhancement ratio greater than 1 and less than 10)	C (A “C” value indicates an enhancement ratio greater than 1 and less than 10)	B (A “B” value indicates an enhancement ratio from 10 to 20)
NC1=NS(=O)(=O)Nc2cccc(OC[C@H]3CCCN(c4ccc(C(=O)N5CCCCC5)cn4)C3)c21 [Compound 513]	C (A “C” value indicates an enhancement ratio greater than 1 and less than 10)	C (A “C” value indicates an enhancement ratio greater than 1 and less than 10)	A (An “A” value indicates an enhancement ratio of greater than 20)	A (An “A” value indicates an enhancement ratio of greater than 20)	C (A “C” value indicates an enhancement ratio greater than 1 and less than 10)	C (A “C” value indicates an enhancement ratio greater than 1 and less than 10)	C (A “C” value indicates an enhancement ratio greater than 1 and less than 10)
CCN(CC)C(=O)c1cccc(N2CCC[C@H](COc3cccc4c3C(N)=NS(=O)(=O)N4)C2)n1 [Compound 411]	–	–	B (A “B” value indicates an enhancement ratio from 10 to 20)	–	C (A “C” value indicates an enhancement ratio greater than 1 and less than 10)	C (A “C” value indicates an enhancement ratio greater than 1 and less than 10)	–
NC1=NS(=O)(=O)Nc2cccc(OC[C@H]3CCCN(c4cccc(C(=O)NCC5CC5)n4)C3)c21 [Compound 417]	–	C (A “C” value indicates an enhancement ratio greater than 1 and less than 10)	A (An “A” value indicates an enhancement ratio of greater than 20)	A (An “A” value indicates an enhancement ratio of greater than 20)	C (A “C” value indicates an enhancement ratio greater than 1 and less than 10)	C (A “C” value indicates an enhancement ratio greater than 1 and less than 10)	C (A “C” value indicates an enhancement ratio greater than 1 and less than 10)
CN1CCN(C(=O)c2ccnc(N3CCC[C@H](COc4cccc5c4C(N)=NS(=O)(=O)N5)C3)c2)CC1 [Compound 615]	–	–	A (An “A” value indicates an enhancement ratio of greater than 20)	A (An “A” value indicates an enhancement ratio of greater than 20)	C (A “C” value indicates an enhancement ratio greater than 1 and less than 10)	C (A “C” value indicates an enhancement ratio greater than 1 and less than 10)	B (A “B” value indicates an enhancement ratio from 10 to 20)
